Source: patent publication US20070207975A1, “Materials and methods for treating and preventing Her-2/neu overexpressing, FAS-elevated cancer cells” (EVANSTON NORTHWESTERN HEALTHCARE, priority 2006, published 2007)

Key:
[1] = tested on: SK-Br3 cells; experiment: TUNEL apoptosis assay, SK-Br3; format: cell-based, human; settings: GLA 10 μg/mL, trastuzumab 10 μg/mL, alone or together, 48 hours
Description: FIG. 6. […] After 72 hours, a TUNEL analysis was performed using the DeadEnd® Fluorometric TUNEL System (Promega Inc.) according to the manufacturer's protocol. The immunofluorescence photomicrographs of cells undergoing apoptosis (green staining) and the corresponding DAPI-counterstained photomicrographs are shown. […] Equal amounts of total protein (50 μg per lane) were subjected to Western blot analyses with a specific antibody against the p85 fragment of PARP, and then re-probed with a β-actin antibody. […] For each pair of columns, the height of the columns on the left represents the sum of the effect of each agent alone and, therefore, the expected apoptotic cell death if their effect was additive when used in combination. […] A) Cell surface expression of Her-2/neu protein in BT-474 and SK-Br3 cells was determined by flow cytometry using a mouse anti-Her-2/neu antibody directed against the extracellular domain of the p185^Her-2/neu oncoprotein (clone Ab-5; Oncogene Research Products; San Diego, Calif.). […] The mean fluorescence signal associated with cells for labeled p185^Her-2/neu was quantified using the Geo Mean (GM) fluorescence parameter provided with the software. […] Immunoreactive bands were detected by enhanced chemiluminescence reagent (Pierce, Rockford, Ill.). […] Densitometric values of protein bands were quantified using Scion Imaging Software (Scion Corp., Frederick, Md.).

[2] = tested on: p185^Her-2/neu; settings: cultured breast cancer cells; exogenous GLA supplementation; reference (16); cited from earlier work
[3] = tested on: p185^Her-2/neu; experiment: In situ immunofluorescent staining of p185Her-2/neu; format: cell-based, human; settings: BT-474; 48 hours
Description: FIG. 2. Exogenous supplementation with OA synergistically enhances trastuzumab-induced down-regulation of p185^Her-2/neu. […] The amount of cell surface-associated p185^Her-2/neu was quantified by flow cytometric analyses using a specific antibody against the extracellular domain of p185^Her-2/neu (Ab-5), as described herein. The mean fluorescence signal±SD (n=3) was quantified using the geo mean fluorescence (GM) parameter provided with the Cell Quest Software (Becton Dickinson). […] After labeling, cells were washed thoroughly, and localization of p185^Her-2/neu was detected by indirect immunofluorescence by incubating with FITC-conjugated anti-mouse IgG. After counterstaining with DAPI, cells were examined and photographed using a Zeiss fluorescent microscope equipped with a built-in camera. […] Similar results were obtained in three independent experiments. […] Similar results were obtained in three independent experiments. Cells were seeded at a density of 1×10^4 cells/well in a four-well chamber slide (Nalge Nunc International, Rochester, N.Y.). […] Indirect immunofluorescence was recorded on a Zeiss microscope. […] Thereafter, p185^Her-2/neu cellular localization was assessed using the anti-erbB2, Ab-3 mouse monoclonal antibody (Oncogene Research Products), which is directed against the C-terminal 14 amino acids of p185^Her-2/neu. […]

[4] = tested on: p27^Kip1; experiment: Western blot of p27Kip1 expression; format: cell-based, human; settings: BT-474; 72 hours; OA, trastuzumab or combination
Description: Densitometric values of protein bands were quantified using Scion Imaging Software (Scion Corp., Frederick, Md.).

| Structure (SMILES) | cells that underwent apoptosis (TUNEL) [1] | proteolytic cleavage of the extracellular domain of p185^Her-2/neu [2] | p185^Her-2/neu-associated membrane (cell surface) staining [3] | expression of p27^Kip1 [4] |
| --- | --- | --- | --- | --- |
| CCCCCC=CCC=CCC=CCCCCC(=O)O [GLA, 6,9,12-octadecatrienoic acid] | 3% (95% CI=2 to 4%) | significantly diminished |  |  |
| CCCCCCCCC=CCCCCCCCC(=O)O [OA, 9-octadecenoic acid] |  |  | markedly reduced | slight increase |
